This note sets out measurements from US5439933A (priority 1993, dated 1995).

In series [1] the test system is L1210 murine leukemia cells. Briefly: Cell proliferation assay (cell counts), L1210. It is filed as cell-based. To be noted: Mus musculus, L1210, 72 h. As for the experimental part:
(§1) Tolytoxin and the other new scytophycin compounds are potent anticancer and antifungal agents. The cytotoxicity of tolytoxin and other new scytophycin compounds was determined using a cell proliferation assay, which tested the effect of the compounds on increases in cell numbers.
(§2) Cell lines were grown in plastic dishes (Falcon) in Eagle's basal medium supplemented with 5% newborn calf serum (KB), Fisher's medium supplemented with 10% horse serum (L1210), Dulbecco's modified Eagle's medium supplemented with 5% heat-inactivated fetal calf serum (LoVo), minimal essential medium supplemented with 2% heat-inactivated chicken serum (HEp-2), RPMI-1640 supplemented with 10% heat-inactivated fetal calf serum (T-47D, COLO-201) or 20% heat-inactivated fetal calf serum (HL-60, KATO-III), or McCoy's 5A supplemented with 10% heat-inactivated fetal calf serum (HBL-100). All cell culture media were supplemented with 50 μg/ml gentamycin sulfate. The cultures were incubated at 37° C. in a humidified atmosphere containing 5% carbon dioxide.
(§3) Cultures were exposed to graded concentrations of tolytoxin and reincubated for 72 hours in the presence of tolytoxin. Three dishes were used for each treatment. Cell numbers were determined by hemacytometer counts. The IC50 for each cell line was determined by plotting the logarithm of the tolytoxin concentration versus growth (cell number as a percentage of the control) of the treated cells.
(§4) The other new scytophycin compounds are also potent cytotoxins. For example, the IC50 of the scytophycins against KB human epidermoid carcinoma, LoVo human adenocarcinoma, and L1210 murine leukemia were determined using the cell proliferation assay described for tolytoxin.

Series [2] in a line: Toxicity in mice, intraperitoneal. Particulars: mouse, in vivo, ip, Swiss Webster mice. The procedure: In view of the cytotoxic effects observed with the new scytophycins, an experiment was performed to determine the toxicity level in an animal model. Various doses of tolytoxin were administered to Swiss Webster mice by the intraperitoneal route.
The subject of series [3] is LoVo human adenocarcinoma cells. Briefly: Cell proliferation assay (cell counts), LoVo. It is filed as cell-based. Particulars: 72 h. As for the experimental part: as §1, §2, §3, §4
The subject of series [4] is COLO-201 human colon adenocarcinoma cells. Briefly: Cell proliferation assay (cell counts), COLO-201. Particulars: Table 5, 72 hours. It is filed as cell-based. As for the experimental part:
as §1, §2
Cultures were exposed to graded concentrations of tolytoxin and reincubated for 72 hours in the presence of tolytoxin. […] Cell numbers were determined by hemacytometer counts. The IC50 for each cell line was determined by plotting the logarithm of the tolytoxin concentration versus growth (cell number as a percentage of the control) of the treated cells.

In series [5] the test system is Murine leukemia (L1210) cells. Briefly: Polynucleation / DNA content by flow cytometry. It is filed as cell-based. To be noted: 10 nM. The procedure: The following procedure employs new scytophycins to produce polynucleated mammalian cells. Murine leukemia (L1210) cells at a density of 1×10^5 cells/mL were treated with tolytoxin for periods ranging from 4 to 24 hours. Tolytoxin or the appropriate vehicle as a control was added in a volume of not more than 4.2 μL per 10 mL of cell suspension. The cell suspension was incubated at 37° C. in a humidified atmosphere of 95% air, 5% carbon dioxide. At the conclusion of the incubation, the cultures were chilled on ice and centrifuged at 200×g (gravity) for 10 minutes. The pelleted cells were fixed in 70% ethanol: 30% water for 1 hour. Aliquots of the fixed cell suspensions were washed twice with 0.01M phosphate buffered saline, pH 7.2-7.4. The cells were resuspended at approximately 1×10^6 /mL in modified Krishan's reagent (Krishan, 1975) containing 0.005% propidium iodide, ribonuclease A at 50 units/mL, 0.1% sodium citrate, and 0.3% Nonidet P-40. Following a 30 minute incubation at 4° C. the cell suspensions were passed 4 times through a 26-gauge needle before analysis on a Coulter Epics C flow cytometer, equipped with an Innova 90 argon laser tuned at 488 nm and set at 200 milliwatts. The fluorescence of 10,000 cells was used to generate the DNA histograms.
A general note: Flow cytometry measures light scatter and fluorescence of single cells or particles in a stream.

The test system of series [6] is KB human epidermoid carcinoma cells. Briefly: Cell proliferation assay (cell counts), KB. It is filed as cell-based. Particulars: 72 h. The procedure:
as §1, §2, §3, §4

Series [7] deals with SKVLB (multi-drug resistant subline of SKOV3). Briefly: cells. Format: cell-based, Human.
Experimental: Human ovarian carcinoma cells (SKOV3) and a subline made multi-drug resistant by slowly increasing vinblastine in the culture medium over the course of many passages (SKVLB) were grown in Earle's basal medium (BME) containing 10% fetal calf serum. The SKVLB cells were maintained in the presence of 1 µg/mL vinblastine.
Cell proliferation was estimated by measurement of protein content of the cultured cells, as described by Skehan et al. (1990). Cells were plated into 24-well plates at approximately 10% confluency in BME and were allowed to attach and recover for at least 24 hours. The cells were then treated with the scytophycins or appropriate control for 48 hours. After the incubation, the medium was removed from each well and cells fixed by addition of 10% (w/v) trichloroacetic acid (TCA) (4° C.). The cells were incubated at 4° C. for one hour and then washed five times with water to remove TCA. The TCA-fixed cells were then stained for 30 minutes with 0.4% (w/v) sulforhodamine B prepared in 1% acetic acid. Following the staining, the cell layers were washed four times with 1% acetic acid. The cell layer was dissolved in 10 mM unbuffered tris-hydroxymethylaminomethane base. Absorbance of the solution was determined at 564 nm. Antiproliferative activity is manifested as decreased production of cellular protein.

The IC50 is the point on the concentration scale where inhibition reaches its midpoint. Broadly, the LD50 is the dose expected to kill half of the subjects tested. Low readings indicate greater toxicity, high ones lower toxicity. As for `COC1CC2C=CCC(CC(OC)C3(CO3)C(OC)CC(OC)C(C)C(C(C)C(O)C(C)CCC(=O)C(C)C(OC)C(C)/C=C/N(C)C=O)OC(=O)/C=C/C(C)=C/C1O)O2` (stereo not shown) [Tolytoxin, 6-hydroxy-7-O-methylscytophycin B], the IC50 in series [1] was determined as 3.9 nM; in series [3], 8.4 nM; in series [4] it was 0.52 nM; in series [6], 5.3 nM; in series [7] (Homo sapiens, SKVLB, 48 h, read-out: IC50 SKVLB), 25 nM. Moreover, the LD50 in series [2] was ~1.5 mg/kg. In series [5] (4 to 24 hours), the “multinucleated cells observed by microscopy” value is “increasing numbers of multinucleated cells”. In addition, the “proportion of cells in the G2 M phase” value in series [5] (4 to 24 hours) was “gradual increase”. The “fraction of the cells with DNA contents greater than 4C” value in series [5] (by 16 hours) is “approximately 1/3”. In series [7] (Table 7, SKVLB vs SKOV3, 2880 min), this molecule showed a Fold-Resistance of 1.
